Data published in patent US9765074B2, “Inhibitors of the renal outer medullary potassium channel” (Merck Sharp & Dohme Corp., priority 2013, dated 2017).

Target: T1, hROMK (hKir1.1) (Homo sapiens, UniProt P48048)
T1 construct: expressed in transfected cells
T1 sequence (P48048 1-391): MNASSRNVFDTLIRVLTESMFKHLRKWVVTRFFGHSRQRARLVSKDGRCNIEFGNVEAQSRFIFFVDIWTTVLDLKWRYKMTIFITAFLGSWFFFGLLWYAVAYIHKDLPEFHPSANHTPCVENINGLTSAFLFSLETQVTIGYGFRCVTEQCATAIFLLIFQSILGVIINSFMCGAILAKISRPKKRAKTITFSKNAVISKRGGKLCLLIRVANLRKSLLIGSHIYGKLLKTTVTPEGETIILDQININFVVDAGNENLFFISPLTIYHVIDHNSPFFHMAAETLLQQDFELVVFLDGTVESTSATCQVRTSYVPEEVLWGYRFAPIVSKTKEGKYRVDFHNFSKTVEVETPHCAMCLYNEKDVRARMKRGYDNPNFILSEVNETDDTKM
Test: Thallium Flux Assay (ROMK channel functional thallium flux, FLIPR-Tetra)
Format: cell-based
Settings: HEK293 cells stably expressing hROMK (hKir1.1); 30 min compound incubation
Procedure, shortened: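 HEK293 cells stably expressing hKir1.1, loaded with FluxOR dye for 90 min, then preincubated with compound for 30 min at ambient temperature with 0.3 mM ouabain and probenecid. Stimulated with 3 mM thallium/0.3 mM potassium (final); fluorescence read ~10 min. Normalized to 3 μM reference ROMK inhibitor; IC50 from inhibition of flux.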

| IC50 | Compound |
| --- | --- |
| 20 nM | CC1=C(N2CCC3(CCN(C[C@H](O)c4nnc(-n5cnnn5)cc4C)CC3)C2=O)COC1=O [Example 121, 8-{(2S)-2-hydroxy-2-[4-methyl-6-(1H-tetrazol-1-yl)pyridazin-3-yl]ethyl}-2-(4-methyl-5-oxo-2,5-dihydrofuran-3-yl)-1-oxo-2-aza-8-azoniaspiro[4.5]decane] |
| 10 nM | CC1=C(N2CCC3(CCN(C[C@H](O)c4ccc(-n5cnnn5)nc4)CC3)C2=O)COC1=O [Example 18, 8-{(2R)-2-hydroxy-2-[6-(1H-tetrazol-1-yl)pyridin-3-yl]ethyl}-2-(4-methyl-5-oxo-2,5-dihydrofuran-3-yl)-1-oxo-2-aza-8-azoniaspiro[4.5]decane] |
| 10 nM | CC1=C(N2CCC3(CCN(CCc4nnc(-n5cnnn5)cc4C)CC3F)C2=O)COC1=O (single isomer, unassigned) [Example 268, 6-fluoro-2-(4-methyl-5-oxo-2,5-dihydrofuran-3-yl)-8-{2-[4-methyl-6-(1H-tetrazol-1-yl)pyridazin-3-yl]ethyl}-2,8-diazaspiro[4.5]decan-1-one] |
| 20 nM | CC1=C(N2C=CC3(CCN(CCc4nnc(-n5cnnn5)cc4C)CC3)C2=O)COC1=O [Example 248, 2-(4-methyl-5-oxo-2,5-dihydrofuran-3-yl)-8-{2-[4-methyl-6-(1H-tetrazol-1-yl)pyridazin-3-yl]ethyl}-1-oxo-2-aza-8-azoniaspiro[4.5]dec-3-ene] |
| 50 nM | Cc1cc([C@H](O)CN2CCC3(CC2)CCN(C2=CC(=O)OC2)C3=O)ncc1-n1cnnn1 [Example 6, 8-{(2R)-2-hydroxy-2-[4-methyl-5-(1H-tetrazol-1-yl)pyridin-2-yl]ethyl}-1-oxo-2-(5-oxo-2,5-dihydrofuran-3-yl)-2-aza-8-azoniaspiro[4.5]decane] |
| 100 nM | CC1CC2(CCN(C(C)(C)C(O)c3cnc(-n4cnnn4)cn3)CC2)C(=O)N1C1=CC(=O)OC1 (single isomer, unassigned) [Example 302, 8-(1-(5-(1H-tetrazol-1-yl)pyrazin-2-yl)-1-hydroxy-2-methylpropan-2-yl)-3-methyl-2-(5-oxo-2,5-dihydrofuran-3-yl)-2,8-diazaspiro[4.5]decan-1-one] |
| 30 nM | CC1=C(N2CCC3(CCN(C[C@@H](O)c4cnc(-n5cnnn5)cn4)CC3)C2=O)COC1=O [Example 25, 8-{(2R)-2-hydroxy-2-[5-(1H-tetrazol-1-yl)pyrazin-2-yl]ethyl}-2-(4-methyl-5-oxo-2,5-dihydrofuran-3-yl)-1-oxo-2-aza-8-azoniaspiro[4.5]decane] |
| 70 nM | CO[C@@H](CN1CCC2(CC1)CCN(C1=C(C)C(=O)OC1)C2=O)c1ccc(-n2cnnn2)cn1 [Example 282, 8-{(2S)-2-methoxy-2-[5-(1H-tetrazol-1-yl)pyridin-2-yl]ethyl}-2-(4-methyl-5-oxo-2,5-dihydrofuran-3-yl)-1-oxo-2-aza-8-azoniaspiro[4.5]decane] |
| 560 nM | CC1(O)CC2(CCN(C[C@H](O)c3ccc(-n4cnnn4)nn3)CC2)C(=O)N1C1=CC(=O)OC1 (stereo partly drawn) [Example 158, 3-hydroxy-8-{(2S)-2-hydroxy-2-[6-(1H-tetrazol-1-yl)pyridazin-3-yl]ethyl}-3-methyl-1-oxo-2-(5-oxo-2,5-dihydrofuran-3-yl)-2-aza-8-azoniaspiro[4.5]decane] |
| 20 nM | CC1=C(N2C(=O)C3(CCN(CCc4ccc(-n5cnnn5)nn4)CC3)CC2C)COC1=O (racemic) [Example 241, 3-methyl-2-(4-methyl-5-oxo-2,5-dihydrofuran-3-yl)-1-oxo-8-{2-[6-(1H-tetrazol-1-yl)pyridazin-3-yl]ethyl}-2-aza-8-azoniaspiro[4.5]decane] |
| 50 nM | CC1=C(N2C(=O)C3(CCN(C[C@@H](O)c4ccc(-n5cnnn5)nc4C)CC3)CC2C)COC1=O (mixture of isomers) [Example 59, 8-{(2S)-2-hydroxy-2-[2-methyl-6-(1H-tetrazol-1-yl)pyridin-3-yl]ethyl}-3-methyl-2-(4-methyl-5-oxo-2,5-dihydrofuran-3-yl)-1-oxo-2-aza-8-azoniaspiro[4.5]decane] |
| 100 nM | CO[C@H](CN1CCC2(CC1)C[C@@H](C)N(C1=C(C)C(=O)OC1)C2=O)c1ccc(-n2cnnn2)nc1 [Example 287, (3R)-8-{(2S)-2-methoxy-2-[6-(1H-tetrazol-1-yl)pyridin-3-yl]ethyl}-3-methyl-2-(4-methyl-5-oxo-2,5-dihydrofuran-3-yl)-1-oxo-2-aza-8-azoniaspiro[4.5]decane] |
| 10 nM | COc1cc(-n2cnnn2)ccc1[C@@H](O)CN1CCC2(CC1)CCN(C1=C(C)C(=O)OC1)C2=O [Example 119, 8-{(2R)-2-hydroxy-2-[2-methoxy-4-(1H-tetrazol-1-yl)phenyl]ethyl}-2-(4-methyl-5-oxo-2,5-dihydrofuran-3-yl)-1-oxo-2-aza-8-azoniaspiro[4.5]decane] |
| 10 nM | CC1=C(N2CCC3(CCN(C[C@H](O)c4ccc(-n5cnnn5)cc4)CC3)C2=O)COC1=O [Example 34, 8-{(2R)-2-hydroxy-2-[4-(1H-tetrazol-1-yl)phenyl]ethyl}-2-(4-methyl-5-oxo-2,5-dihydrofuran-3-yl)-1-oxo-2-aza-8-azoniaspiro[4.5]decane] |
| 40 nM | CC1=C(N2CCC3(CCN(C[C@H](O)c4cnc(-n5cnnn5)cc4C(F)F)CC3)C2=O)COC1=O (stereo in doubt) [Example 147, 8-{2-[4-(difluoromethyl)-6-(1H-tetrazol-1-yl)pyridin-3-yl]-2-hydroxyethyl}-2-(4-methyl-5-oxo-2,5-dihydrofuran-3-yl)-2,8-diazaspiro[4.5]decan-1-one] |
| 10 nM | CC1=C(N2CCC3(CCN(C(C)(C)C(O)c4ccc(-n5cnnn5)nc4)CC3)C2=O)COC1=O (single isomer, unassigned) [Example 298] |
| 30 nM | COC(=O)c1cc(-n2cnnn2)ncc1CCN1CCC2(CC1)CCN(C1=C(C)C(=O)OC1)C2=O [Example 254, methyl 5-(2-(2-(4-methyl-5-oxo-2,5-dihydrofuran-3-yl)-1-oxo-2,8-diazaspiro[4.5]decan-8-yl)ethyl)-2-(1H-tetrazol-1-yl)isonicotinate] |
| 100 nM | O=C1C=C(N2C(=O)C3(CCN(C[C@H](O)c4ccc(-n5cnnn5)cn4)CC3)CC2C2CC2)CO1 (mixture of isomers) [Example 222, 3-cyclopropyl-8-{(2S)-2-hydroxy-2-[5-(1H-tetrazol-1-yl)pyridin-2-yl]ethyl}-2-(5-oxo-2,5-dihydrofuran-3-yl)-2,8-diazaspiro[4.5]decan-1-one] |
| 20 nM | Cc1nc(-n2cnnn2)cnc1CCN1CCC2(CC1)CCN(C1=CC(=O)OC1)C2=O [Example 269, 8-{2-[3-methyl-5-(1H-tetrazol-1-yl)pyrazin-2-yl]ethyl}-2-(5-oxo-2,5-dihydrofuran-3-yl)-2,8-diazaspiro[4.5]decan-1-one] |
| 40 nM | CC1=C(N2CCC3(CCN(C[C@@H](O)c4ccc(-n5cnnn5)nc4C)CC3)C2=O)COC1=O [Example 21, 8-{(2S)-2-hydroxy-2-[2-methyl-6-(1H-tetrazol-1-yl)pyridin-3-yl]ethyl}-2-(4-methyl-5-oxo-2,5-dihydrofuran-3-yl)-1-oxo-2-aza-8-azoniaspiro[4.5]decane] |
| 3 nM | Cc1nc(-n2cnnn2)cnc1CCN1CCC2(CC1)C[C@H](C)N(C1=CC(=O)OC1)C2=O [Example 261, (3S)-3-methyl-8-{2-[3-methyl-5-(1H-tetrazol-1-yl)pyrazin-2-yl]ethyl}-2-(5-oxo-2,5-dihydrofuran-3-yl)-2,8-diazaspiro[4.5]decan-1-one] |
| 10 nM | O=C1C=C(N2CCC3(CCN(C[C@H](O)c4ccc(-n5cnnn5)nc4)CC3)C2=O)CO1 [Example 1, 8-{(2R)-2-Hydroxy-2-[6-(1H-tetrazol-1-yl)pyridin-3-yl]ethyl}-1-oxo-2-(5-oxo-2,5-dihydrofuran-3-yl)-2-aza-8-azoniaspiro[4.5]decane] |
| 300 nM | O=C1C=C(N2C(=O)C3(CCN(C[C@H](O)c4cnc(-n5cnnn5)cn4)CC3)CC2CF)CO1 (single isomer, unassigned) [Example 204] |
| 20 nM | COc1cc(-n2cnnn2)ccc1[C@H](O)CN1CCC2(CC1)CCN(C1=CC(=O)OC1)C2=O [Example 16, 8-{(2S)-2-hydroxy-2-[2-methoxy-4-(1H-tetrazol-1-yl)phenyl]ethyl}-1-oxo-2-(5-oxo-2,5-dihydrofuran-3-yl)-2-aza-8-azoniaspiro[4.5]decane] |

| Compound | IC50 |
| --- | --- |
| CC1CC2(CC3CCC(C2)N3C[C@H](O)c2ccc(-n3cnnn3)nc2)C(=O)N1C1=CC(=O)OC1 (single isomer, unassigned) [Example 100] | 10 nM |
| O=C1C=C(N2CCC3(CC4CCC(C3)N4C[C@H](O)c3ccc(-n4cnnn4)nn3)C2=O)CO1 (stereo partly drawn) [Example 44, (1R,5R)-8-{(2S)-2-hydroxy-2-[6-(1H-tetrazol-1-yl)pyridazin-3-yl]ethyl}-2′-oxo-1′-(5-oxo-2,5-dihydrofuran-3-yl)spiro[8-azoniabicyclo[3.2.1]octane-3,3′-pyrrolidine]] | 10 nM |
| Cc1nc(-n2cnnn2)ccc1[C@@H](O)CN1C2CCC1CC1(CCN(C3=CC(=O)OC3)C1=O)C2 (stereo partly drawn) [Example 43, (1R,5R)-8-{(2R)-2-hydroxy-2-[2-methyl-6-(1H-tetrazol-1-yl)pyridin-3-yl]ethyl}-2′-oxo-1′-(5-oxo-2,5-dihydrofuran-3-yl)spiro[8-azoniabicyclo[3.2.1]octane-3,3′-pyrrolidine]] | 10 nM |
| CC1CC2(CC3CCC(C2)N3C[C@H](O)c2cnc(-n3cnnn3)cn2)C(=O)N1C1=CC(=O)OC1 (single isomer, unassigned) [Example 89] | 30 nM |
